From the kinase profiling compilation of Christmann-Franck et al. (2016)

Legend:
Test in all cases: KINOMEscan competition binding
[1] = biological target: BMP2K (human) (UniProt Q9NSY1); details: compound 10.0 µM
[2] = biological target: PDGFRB (human) (UniProt P09619); details: compound 10.0 µM
[3] = biological target: MYLK (human) (UniProt Q15746); details: compound 10.0 µM
[4] = biological target: STK17B (human) (UniProt O94768); details: compound 10.0 µM
[5] = biological target: CSNK1G3 (human) (UniProt Q9Y6M4); details: compound 10.0 µM
[6] = tested on: FLT3 (human), P36888 [D835Y]; details: compound 10.0 µM
[7] = biological target: AAK1 (human) (UniProt Q2M2I8); details: compound 10.0 µM
[8] = biological target: TTK (human) (UniProt P33981); details: compound 10.0 µM
[9] = tested on: EGFR (human), P00533 [P753S; 747-752 del]; details: compound 10.0 µM
[10] = biological target: CSNK2A1 (human) (UniProt P68400); details: compound 10.0 µM
[11] = tested on: EGFR (human), P00533 [752-759 del]; details: compound 10.0 µM
[12] = biological target: MYLK4 (human) (UniProt Q86YV6); details: for kinase still bound, per cent of control: compound 10.0 µM
[13] = biological target: MELK (human) (UniProt Q14680); details: compound 10.0 µM
[14] = biological target: AURKC (human) (UniProt Q9UQB9); details: compound 10.0 µM
[15] = biological target: TYK2 JH1 catalytic (human) (UniProt P29597); details: compound 10.0 µM
[16] = biological target: CLK3 (human) (UniProt P49761); details: compound 10.0 µM
[17] = biological target: RIOK2 (human) (UniProt Q9BVS4); details: compound 10.0 µM
[18] = biological target: MAP3K7 (human) (UniProt O43318); details: compound 10.0 µM
[19] = biological target: CIT (human) (UniProt O14578); details: compound 10.0 µM
[20] = biological target: FLT3 (human) (UniProt P36888); details: compound 10.0 µM
[21] = tested on: FLT3 (human), P36888 [ITD]; details: compound 10.0 µM
[22] = biological target: NEK9 (human) (UniProt Q8TD19); details: compound 10.0 µM
[23] = biological target: RIPK4 (human) (UniProt P57078); details: compound 10.0 µM
[24] = biological target: MERTK (human) (UniProt Q12866); details: compound 10.0 µM
[25] = biological target: NEK1 (human) (UniProt Q96PY6); details: compound 10.0 µM
[26] = biological target: MYO3B (human) (UniProt Q8WXR4); details: compound 10.0 µM
[27] = biological target: PAK7 (human) (UniProt Q9P286); details: compound 10.0 µM
[28] = biological target: BRSK1 (human) (UniProt Q8TDC3); details: compound 10.0 µM
[29] = biological target: EIF2AK2 (human) (UniProt P19525); details: compound 10.0 µM
[30] = biological target: SRMS (human) (UniProt Q9H3Y6); details: compound 10.0 µM
[31] = biological target: CDK2 (human) (UniProt P24941); details: compound 10.0 µM
[32] = biological target: GSK3A (human) (UniProt P49840); details: compound 10.0 µM
[33] = biological target: SIK2 (human) (UniProt Q9H0K1); details: compound 10.0 µM
[34] = biological target: MAP4K5 (human) (UniProt Q9Y4K4); details: compound 10.0 µM

CSNK2A1 (human), sequence (P68400 whole entry, looked up): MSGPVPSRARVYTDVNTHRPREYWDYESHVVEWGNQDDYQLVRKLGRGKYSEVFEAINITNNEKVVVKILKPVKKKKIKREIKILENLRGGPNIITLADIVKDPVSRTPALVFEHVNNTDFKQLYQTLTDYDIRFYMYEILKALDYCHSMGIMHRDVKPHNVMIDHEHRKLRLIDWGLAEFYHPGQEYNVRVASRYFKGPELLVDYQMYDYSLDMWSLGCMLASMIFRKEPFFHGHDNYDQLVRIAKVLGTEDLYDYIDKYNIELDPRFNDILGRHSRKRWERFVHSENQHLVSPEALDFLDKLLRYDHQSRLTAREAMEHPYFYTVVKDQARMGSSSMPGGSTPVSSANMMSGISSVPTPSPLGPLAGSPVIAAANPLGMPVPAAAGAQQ
BMP2K (human), sequence (Q9NSY1 whole entry, looked up): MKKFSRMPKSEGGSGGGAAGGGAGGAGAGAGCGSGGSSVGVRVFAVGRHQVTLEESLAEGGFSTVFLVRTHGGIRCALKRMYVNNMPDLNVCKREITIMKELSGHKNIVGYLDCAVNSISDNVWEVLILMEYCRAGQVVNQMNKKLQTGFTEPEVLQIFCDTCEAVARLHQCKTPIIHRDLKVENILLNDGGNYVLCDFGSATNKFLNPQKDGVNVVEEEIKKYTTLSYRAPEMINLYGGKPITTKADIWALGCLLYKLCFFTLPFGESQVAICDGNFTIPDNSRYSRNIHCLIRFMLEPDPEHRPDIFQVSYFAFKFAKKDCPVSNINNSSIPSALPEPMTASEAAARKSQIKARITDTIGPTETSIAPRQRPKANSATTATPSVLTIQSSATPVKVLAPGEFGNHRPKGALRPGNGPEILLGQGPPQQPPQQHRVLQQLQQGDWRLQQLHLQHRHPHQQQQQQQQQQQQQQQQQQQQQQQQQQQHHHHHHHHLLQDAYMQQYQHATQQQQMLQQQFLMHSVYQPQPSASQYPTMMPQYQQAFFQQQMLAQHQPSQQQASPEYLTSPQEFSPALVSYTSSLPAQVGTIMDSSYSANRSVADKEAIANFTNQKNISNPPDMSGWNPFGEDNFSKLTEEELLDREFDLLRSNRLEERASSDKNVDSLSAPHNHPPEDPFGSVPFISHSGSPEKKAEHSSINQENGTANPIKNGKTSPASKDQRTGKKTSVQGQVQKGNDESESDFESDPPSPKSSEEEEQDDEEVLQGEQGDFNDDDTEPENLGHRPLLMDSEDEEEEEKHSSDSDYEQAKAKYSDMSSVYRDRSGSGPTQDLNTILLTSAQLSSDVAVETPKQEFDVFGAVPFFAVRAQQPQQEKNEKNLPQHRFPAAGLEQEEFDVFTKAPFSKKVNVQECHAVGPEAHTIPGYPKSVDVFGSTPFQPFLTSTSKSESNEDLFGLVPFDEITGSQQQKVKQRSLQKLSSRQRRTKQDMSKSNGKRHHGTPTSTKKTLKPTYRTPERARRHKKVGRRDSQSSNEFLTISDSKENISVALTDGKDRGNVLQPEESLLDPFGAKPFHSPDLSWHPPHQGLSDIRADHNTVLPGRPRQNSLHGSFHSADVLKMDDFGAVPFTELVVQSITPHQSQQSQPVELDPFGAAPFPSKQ
AURKC (human), sequence (Q9UQB9 whole entry, looked up): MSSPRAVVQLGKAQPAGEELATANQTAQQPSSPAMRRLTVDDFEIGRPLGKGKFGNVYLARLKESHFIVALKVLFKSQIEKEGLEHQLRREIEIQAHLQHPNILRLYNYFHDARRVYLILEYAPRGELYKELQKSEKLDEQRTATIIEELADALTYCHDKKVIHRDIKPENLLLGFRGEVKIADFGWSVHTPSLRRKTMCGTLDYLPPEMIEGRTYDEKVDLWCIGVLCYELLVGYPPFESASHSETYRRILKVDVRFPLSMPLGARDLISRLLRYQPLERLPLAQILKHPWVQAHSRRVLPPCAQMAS
CIT (human), sequence (O14578 whole entry, looked up): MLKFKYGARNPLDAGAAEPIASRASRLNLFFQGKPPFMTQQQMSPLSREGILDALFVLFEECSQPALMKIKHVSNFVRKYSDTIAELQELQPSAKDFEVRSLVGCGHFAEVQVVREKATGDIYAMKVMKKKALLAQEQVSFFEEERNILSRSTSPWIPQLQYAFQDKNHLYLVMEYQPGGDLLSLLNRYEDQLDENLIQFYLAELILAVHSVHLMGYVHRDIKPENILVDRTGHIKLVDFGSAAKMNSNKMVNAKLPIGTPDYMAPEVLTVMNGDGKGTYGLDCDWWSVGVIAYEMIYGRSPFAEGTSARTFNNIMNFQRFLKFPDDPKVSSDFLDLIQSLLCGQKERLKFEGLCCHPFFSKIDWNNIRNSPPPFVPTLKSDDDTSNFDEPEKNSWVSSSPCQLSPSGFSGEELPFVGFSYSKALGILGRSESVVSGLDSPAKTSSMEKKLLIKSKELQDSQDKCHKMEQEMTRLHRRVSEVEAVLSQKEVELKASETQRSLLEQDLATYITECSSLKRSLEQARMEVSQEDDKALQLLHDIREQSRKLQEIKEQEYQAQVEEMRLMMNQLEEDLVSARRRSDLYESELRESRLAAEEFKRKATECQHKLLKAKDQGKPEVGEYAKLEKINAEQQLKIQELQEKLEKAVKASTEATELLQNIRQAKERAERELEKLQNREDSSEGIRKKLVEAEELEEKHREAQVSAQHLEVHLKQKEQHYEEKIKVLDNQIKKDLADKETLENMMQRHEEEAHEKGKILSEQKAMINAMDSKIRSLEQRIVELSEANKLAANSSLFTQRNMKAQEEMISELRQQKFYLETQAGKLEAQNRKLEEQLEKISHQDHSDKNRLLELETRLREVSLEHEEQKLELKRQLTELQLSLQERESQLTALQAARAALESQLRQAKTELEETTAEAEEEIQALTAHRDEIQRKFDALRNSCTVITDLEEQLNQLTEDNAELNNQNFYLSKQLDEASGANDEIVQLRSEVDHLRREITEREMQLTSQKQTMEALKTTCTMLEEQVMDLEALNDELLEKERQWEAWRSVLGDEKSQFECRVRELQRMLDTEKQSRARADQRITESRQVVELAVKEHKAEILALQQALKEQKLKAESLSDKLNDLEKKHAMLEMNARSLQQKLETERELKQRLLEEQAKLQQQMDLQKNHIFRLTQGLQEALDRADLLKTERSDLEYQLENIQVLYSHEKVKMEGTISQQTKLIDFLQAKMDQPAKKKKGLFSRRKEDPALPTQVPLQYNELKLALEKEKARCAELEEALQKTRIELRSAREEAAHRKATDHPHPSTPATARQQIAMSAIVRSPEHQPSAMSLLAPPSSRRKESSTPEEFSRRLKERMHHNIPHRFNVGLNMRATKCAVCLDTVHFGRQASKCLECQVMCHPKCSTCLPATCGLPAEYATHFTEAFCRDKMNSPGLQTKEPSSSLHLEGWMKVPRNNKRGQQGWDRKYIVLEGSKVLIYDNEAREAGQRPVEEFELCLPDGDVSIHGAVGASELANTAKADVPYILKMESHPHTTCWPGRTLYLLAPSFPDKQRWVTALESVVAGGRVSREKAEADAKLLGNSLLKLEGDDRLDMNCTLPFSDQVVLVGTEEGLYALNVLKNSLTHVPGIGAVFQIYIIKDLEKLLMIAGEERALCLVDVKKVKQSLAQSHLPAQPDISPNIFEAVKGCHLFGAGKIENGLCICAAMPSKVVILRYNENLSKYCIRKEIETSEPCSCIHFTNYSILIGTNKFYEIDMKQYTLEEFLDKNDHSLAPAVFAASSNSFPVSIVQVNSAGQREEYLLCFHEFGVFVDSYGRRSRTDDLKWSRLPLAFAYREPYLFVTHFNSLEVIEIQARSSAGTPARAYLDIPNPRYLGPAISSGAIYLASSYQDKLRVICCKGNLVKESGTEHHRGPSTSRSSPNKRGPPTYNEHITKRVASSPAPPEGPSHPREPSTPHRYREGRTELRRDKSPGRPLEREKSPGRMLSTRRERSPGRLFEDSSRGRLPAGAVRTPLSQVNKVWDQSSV
RIOK2 (human), sequence (Q9BVS4 whole entry, looked up): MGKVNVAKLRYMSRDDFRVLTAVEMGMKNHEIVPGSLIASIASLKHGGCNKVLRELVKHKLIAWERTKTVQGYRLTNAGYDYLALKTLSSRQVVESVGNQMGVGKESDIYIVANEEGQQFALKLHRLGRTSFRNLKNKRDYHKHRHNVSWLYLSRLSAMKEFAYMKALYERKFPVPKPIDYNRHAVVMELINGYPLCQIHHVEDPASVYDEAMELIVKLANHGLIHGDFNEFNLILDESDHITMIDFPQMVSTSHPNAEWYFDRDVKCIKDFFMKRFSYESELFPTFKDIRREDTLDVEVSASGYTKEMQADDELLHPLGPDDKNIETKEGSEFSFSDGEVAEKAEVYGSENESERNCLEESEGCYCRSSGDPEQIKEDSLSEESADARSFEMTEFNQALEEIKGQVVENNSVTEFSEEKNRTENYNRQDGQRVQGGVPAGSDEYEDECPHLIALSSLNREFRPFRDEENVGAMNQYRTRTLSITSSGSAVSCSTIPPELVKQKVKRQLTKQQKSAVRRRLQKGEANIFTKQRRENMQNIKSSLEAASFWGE
GSK3A (human), sequence (P49840 whole entry, looked up): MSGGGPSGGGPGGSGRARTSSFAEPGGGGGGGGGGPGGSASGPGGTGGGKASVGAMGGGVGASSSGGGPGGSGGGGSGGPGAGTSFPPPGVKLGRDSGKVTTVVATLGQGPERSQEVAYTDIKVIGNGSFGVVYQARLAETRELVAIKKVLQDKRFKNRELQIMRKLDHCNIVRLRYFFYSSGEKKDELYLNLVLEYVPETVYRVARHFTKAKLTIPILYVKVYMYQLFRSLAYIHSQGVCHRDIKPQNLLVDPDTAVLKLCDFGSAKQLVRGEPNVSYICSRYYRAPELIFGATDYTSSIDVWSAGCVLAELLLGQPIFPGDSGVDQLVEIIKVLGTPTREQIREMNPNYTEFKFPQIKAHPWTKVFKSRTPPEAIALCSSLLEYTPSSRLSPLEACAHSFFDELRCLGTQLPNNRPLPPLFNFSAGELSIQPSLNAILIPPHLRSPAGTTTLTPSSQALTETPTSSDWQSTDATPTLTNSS

Row | SMILES | kinase still bound, per cent of control [1] [%] | kinase still bound, per cent of control [2] [%] | kinase still bound, per cent of control [3] [%] | kinase still bound, per cent of control [4] [%] | kinase still bound, per cent of control [5] [%] | kinase still bound, per cent of control [6] [%] | kinase still bound, per cent of control [7] [%] | kinase still bound, per cent of control [8] [%] | kinase still bound, per cent of control [10] [%] | kinase still bound, per cent of control [12] [%] | kinase still bound, per cent of control [13] [%] | kinase still bound, per cent of control [14] [%] | kinase still bound, per cent of control [16] [%] | kinase still bound, per cent of control [17] [%] | kinase still bound, per cent of control [18] [%] | kinase still bound, per cent of control [19] [%] | kinase still bound, per cent of control [20] [%] | kinase still bound, per cent of control [21] [%] | kinase still bound, per cent of control [23] [%] | kinase still bound, per cent of control [32] [%] | further results
1 | CS(=O)(=O)Nc1ccc(-c2ncc(/C=C3\SC(=N)NC3=O)s2)cc1 | 29 | 10 | 19 | 24 | 8.3 | 12 | 13 | 19 | – | – | – | – | – | – | – | – | – | – | – | – | –
2 | Nc1cccc(-c2cc(/C=C3\SC(=O)NC3=O)c[nH]c2=O)c1 | 1 | – | 25 | 1 | 13 | – | 1.8 | – | 17 | 2.8 | 30 | 30 | 1.2 | – | – | – | – | – | – | – | kinase still bound, per cent of control [9]: 16%; kinase still bound, per cent of control [11]: 14%; kinase still bound, per cent of control [15]: 14%
3 | CS(=O)(=O)Nc1ccc(-c2cc(/C=C3\SC(=N)NC3=O)c[nH]c2=O)cc1 | 2.2 | – | – | 31 | – | 20 | 7.6 | 33 | 4.8 | – | – | – | 2.4 | 33 | 18 | 23 | 8.6 | – | – | – | –
4 | CN1C(=O)[C@H]2CCC[C@H]2N(C2CCCC2)c2nc(Nc3ccc(C(N)=O)cc3)ncc21 | 12 | – | 23 | 0.2 | 17 | 2.6 | – | 14 | 25 | 30 | 27 | 2.2 | – | 6 | 3.4 | 28 | 19 | 20 | 30 | – | kinase still bound, per cent of control [22]: 8.9%; kinase still bound, per cent of control [15]: 19%; kinase still bound, per cent of control [24]: 6.8%
5 | O=C1NC(=S)S/C1=C\c1ccc(-c2cncc3ccccc23)o1 | 0.4 | 18 | – | 0.25 | – | 1.8 | 4.7 | 17 | 3.2 | 0.25 | – | 5.2 | – | 3.4 | 28 | 28 | 16 | 6.2 | – | – | kinase still bound, per cent of control [25]: 31%; kinase still bound, per cent of control [26]: 26%; kinase still bound, per cent of control [27]: 11%; kinase still bound, per cent of control [28]: 28%; kinase still bound, per cent of control [29]: 23%
6 | N=C1NC(=O)/C(=C/c2ccc(-c3ccc(C(N)=O)cc3O)o2)S1 | – | – | – | 1.5 | – | – | 15 | 34 | 5.8 | 6 | – | – | 4.2 | – | – | 19 | – | – | 7.9 | 17 | kinase still bound, per cent of control [30]: 33%; kinase still bound, per cent of control [31]: 19%
7 | N=C1NC(=O)/C(=C/c2c[nH]c(=O)c(-c3ccc(N4CCNCC4)nc3)c2)S1 | 6.3 | – | – | 1.7 | – | 23 | 12 | – | – | – | 27 | – | 29 | – | – | – | – | – | – | – | –
8 | N=C1NC(=O)/C(=C/c2ccc(-c3ccccc3O)o2)S1 | 14 | – | 14 | 2 | – | – | 8.2 | – | 9.9 | 5.9 | – | – | 12 | – | – | – | – | – | 5.2 | – | kinase still bound, per cent of control [31]: 20%
9 | N=C1NC(=O)/C(=C/c2ccc(-c3ccc(F)cc3O)o2)S1 | – | – | – | 2.9 | – | – | 16 | – | – | 8.1 | – | – | 11 | – | – | 33 | – | – | 4.2 | – | kinase still bound, per cent of control [31]: 6.6%
10 | CS(=O)(=O)Nc1ccc(-c2cncc(/C=C3\SC(=N)NC3=O)c2)cc1 | 22 | 7.2 | – | 5.4 | 1 | 3.8 | 32 | – | – | 29 | – | 16 | – | 23 | 3.4 | 0.8 | – | 25 | 5.8 | 13 | kinase still bound, per cent of control [33]: 24%; kinase still bound, per cent of control [34]: 12%
11 | N=C1NC(=O)/C(=C/c2ccc(-c3cncc4ccccc34)o2)S1 | 0 | 5.4 | 19 | 0.2 | – | 0.45 | 1.1 | 2.4 | 6.4 | 0.05 | 28 | 0.3 | 18 | – | – | 19 | 10 | 1.2 | 4.7 | 14 | kinase still bound, per cent of control [33]: 27%; Kd [12]: 55 nM; kinase still bound, per cent of control [25]: 33%; kinase still bound, per cent of control [27]: 13%; kinase still bound, per cent of control [28]: 6.6%; kinase still bound, per cent of control [29]: 25%
12 | CSC1=NC(=O)/C(=C/c2c[nH]c(=O)c(-c3ccc(NS(C)(=O)=O)cc3)c2)S1 | 2 | – | 34 | 5 | – | – | 6.2 | – | 1.6 | – | – | – | 14 | – | 14 | – | – | – | 8.4 | – | –
13 | N=C1NC(=O)/C(=C/c2ccc(-c3csc4ccccc34)o2)S1 | – | – | – | 0.4 | – | 19 | – | – | 12 | 32 | – | – | – | – | – | – | – | – | – | 0 | –
